Measured values: patent publication US6423703B1, “Use of a porphyrin for producing a medicine reducing the number of eosinophils” (Sephra S.A.R.L., priority 1998, dated 2002)
“Also recorded” adds a separate entry of the source. Where two headings read alike, the source gives them in different places.

Tests used:
[1] = test system: inflammation; details: Nagai et al, 1992; 30 mg/kg; adult rats and mice; cited from earlier work
[2] = test system: peritoneal hypereosinophilia; assay: Ovalbumin-induced peritoneal hypereosinophilia in mice; format: in vivo, Swiss mice; details: 0.1 ml of 1 mM (3.1 mg/kg) intraperitoneal with ovalbumin challenge; 48 hrs; two mice
Experimental: Swiss mice (about 20 g) are immunised sub cutaneously twice (with a 6 day interval) with 100 μg of ovalbumin in 0.4 ml of a suspension at 4 mg/ml of Al(OH)3 in NaCl 0.9%. One week after the second injection, 0.2 ml of ovalbumin at 5 μg/ml of ovalbumin are administered by intraperitoneal injection. The control mice are injected with the vehicle only.
The mice are killed at different times (overdose of ether) and—after dissection —undergo a peritoneal wash with 6ml of NaCl 0.9% (heparinised). After slight massage, the liquid of the wash is collected and the cellular concentration is measured in a hemocytometer. Cytocentrifugation strips are made and coloured by the Wright colorant (kit RAL 555, Prolabo, France). The differential count of mononucleated (monocytes+macrophages+lymphocytes), eosinophil and neutrophil cells is carried out objectively×100 by immersion in oil. During the peritoneal washing of the control mice, the residual cells are essentially macrophages, whereas during the peritoneal washing of mice immunised by ovalbumin, an inflammatory infiltrate with the apparition of polynuclear eosinophils and neutrophils is observed.
The ZnPP-IX is Injected at the same time as the second injection of ovalbumin (OVA). […] The results are represented by FIGS. 4, 5 and 6. Each column represents the average for two mice at 48 hrs.

[3] = test system: eosinophils; assay: TUNEL method, DNA fragmentation in situ in eosinophils; format: cell-based, human; details: IL-5 (lpM) and ZnPP-IX (10 μM); 48 hours
Experimental: The TUNEL method makes it possible to visualise the apoptotic nuclei containing the fragmented DNA. Its assumption rests on the enzymatic fixation of a fluorescent marker (Fluoresceine-12-dUTP) at the free extremities of the DNA (3′-OH DNA). This technique consists of the cells in each well being cytocentrifuged then fixed by formaldehyde solution at 4% (25 min at 4° C.). After washing, the preparations are made permeable by a solution of Triton X-100 0.2% (5 min at 20° C.). The cells are incubated (1 hr at 37° C.) in the presence of a solution containing fluoresceine-12-dUTP and the enzyme TdT (terminal deoxynucleotidal transferase). The reaction is […] in a stopping solution. After mounting under a coverglass, the preparation is visualized under the fluorescence microscope (Apoptosis Detection System Fluorescein. Promega, Madison, Wis., USA).
In the presence of IL-5 and the control solution, there is no marking of the nuclei.

[4] = test system: steroidogenesis; details: Trakshel et al, 1992; s.c. 31 mg/kg (2x −4j); 7 days; rats; cited from earlier work
[5] = test system: cerebral ischemia; details: i.p. 50 mg/kg, 24 hrs, adult rats, cited from earlier work
[6] = test system: neonatal jaundice; details: Rodgers et al, 1990; i.v. 25 mg/kg; 26 hrs; Rhesus monkeys (new-born); cited from earlier work
[7] = test system: human eosinophils; assay: Apoptosis and survival of purified human eosinophils in culture (cytology, blue trypan); format: cell-based; details: for Apoptosis of eosinophils (percentage of apoptotic eosinophils): ZnPP-IX 10 μM, IL-5 10 pM where present, RPMI 1640, average of three experiments; for Number of apoptotic cells: in the presence of IL-5
Experimental: A leukocyte-rich suspension is obtained after sedimentation of whole blood, anticoagulated in the presence of dextran T500 (4.5%). 35 ml of aliquots are added to 15 mi of Ficoll. After centrifugation (30 min, 1000×g) the mononucleated cells at the interface are eliminated. The pellet which contains neutrophils, eosinophils and the corpuscles is washed and subjected to an osmotic shock in order to eliminate the corpuscles. The magnetic cellular separation system (MACS; Miltenyi Biotec) is used to purify the eosinophils by negative selection [Hansel et al, 1991, J. Immunol. Meth. 145: 105-110]. Magnetic particles anti-CD16 (1 μl/1×10^6 cells) are added to the suspension of neutrophils and eosinophils at 4° C. and kept at this temperature for 40 minutes with several placement gain in solution. The suspension is then added at the summit of the separation column in the presence of a magnetic field, the tap open at the base. 30 ml of PBS/FCS is passed through the column and the effluent is recovered. The magnetically marked cells (neutrophils) remain in the column; the unmarked cells (eosinophils) are recovered in the effluent and washed. PBS=Phosphate buffered saline FCS=Foetal calf serum
The freshly purified eosinophils are again placed in suspension (1.5-3×10^5 cells per ml) in RPMI 1640 (Gibco BRL) supplemented with 0.1 mM non essential amino acids, 100 U/ml of penicillin, 10 μg of streptomycine, 10 mM of HEPES, 2 mM of glutamine and 10% FCS. The aliquots of 160 μl of cellular suspension are deposited in each of the wells of a 96 well tray (Costar) containing 20 μl of IL-5 as survival factor. Twenty μl of the substance to be studied in a precise concentration or 20 μl of the medium on its own as a control are deposited in the corresponding wells. The cellular viability and the percentage of apoptotic eosinophils are counted at 24 hrs and 48 hrs with the aid of the methods below.
Blue trypan makes it possible to evaluate cellular viability. The cellular suspension is added to an equal volume of blue trypan at 0.1% in PBS. The abso!ute number of cells excluding the blue trypan (=“living” cells) per unit volume is obtained by counting the cells in a hemocytometer (Mallassez).
Cytology: makes it possible to visualise the morphological modification of the eosinophils during apoptosis in vitro. The cellular suspension is cyto-centrifuged then the strips are coloured (kit RAL 555, Prolabo). The percentage of apoptotic cells is established by optical microscope according to their characteristic morphology (pyknotic nucleus with condensed chromatine or without a nucleus, reduction in the cells diameter, cytoplasmic condensation). The freshly isolated eosinophils from the blood circulation have a characteristic morphology in optical microscopy: a granular cytoplasm coloured red-orange by eosin and a very often bivobed nucleus. In the absence of survival factors such as IL-5, IL-3 or GM-CSF, the first morphological signs of apotosis of the eosinophils appear. The chromatin condenses and the nucleus of the eosinophil takes on a pyknotic appearance. This pyknotic appearance of the nucleus, standard in the course of apoptosis, is however rarely observed in the eosinophil, perhaps because of its brevity. Another morphological sign characteristic of apoptosis is the reduction of cellular volume which is very marked in the eosinophil (Beauvais et al, 1995, J, Leukoc. Biol. 57: 851-855). After 48 hours of incubation, the nuclear structures have disappeared in the majority of eosinophils which now appear in the form of anucleated vesicles.

[8] = test system: neonatal jaundice; details: Qato et Maines, 1985; s.c. 25 mg/kg; 12 days; Rhesus monkeys and cynomolgus; cited from earlier work
[9] = −20° C., protected from light and humidity; cited from earlier work
[10] = test system: intestinal, splenic and hepatic hemoxygenesis; details: Vrema et al, 1988; p.o. 25 mg/kg; 6 hrs; new-born and adult rats; cited from earlier work
[11] = test system: hyperbilirubinemia due to iatrogenic hemolysis; details: Vreman et al, 1990; i.v. 25 mg/kg; 24 hrs; Rhesus monkeys (new-born); cited from earlier work
[12] = literature in vivo studies; rats, mice, monkeys; i.v., i.p., sub-cutaneous; cited from earlier work
[13] = Hintz et al, 1990; i.p. 37 mg/kg; 12 hrs; new-born rats; cited from earlier work
[14] = test system: neonatal jaundice; details: Rodgers et al, 1996; i.p. 25 mg/kg; 21 days; new-born rats; cited from earlier work
[15] = test system: eosinophils; details: in vitro; cited from earlier work

C=CC1=C(C)c2cc3[n-]c(cc4[n-]c(cc5nc(cc1n2)C(C)=C5C=C)c(C)c4CCC(=O)O)c(CCC(=O)O)c3C.[Zn+2] [ZnPP-IX, Zinc-Protoporphyrin IX]
Pharmacological effects [1]: Anti-inflammatory effect | Inflammatory infiltrate in peritoneal wash [2]: reduces the inflammatory infiltrate | Number of eosinophils in the tissues [2]: large decrease | Marking of apoptotic nuclei by the TUNEL method [3]: appear marked | Pharmacological effects (steroidogenesis) [4]: No effect on steroidogenesis | Pharmacological effects ([5]; Kadoya et al, 1995): Protects from cerebral ischemia | Pharmacological effects ([5]; Zhao et al, 1996): Protects from cerebral ischemia | Pharmacological effects [6]: Reduces neonatal jaundice | Apoptosis of eosinophils (percentage of apoptotic eosinophils) ([7]; 24 hrs): 45 ± 15 | Apoptosis of eosinophils (percentage of apoptotic eosinophils) ([7]; 48 hrs): 99 ± 1 | Activity on the survival and apoptosis of the eosinophils (FIG. 2) ([7]; average of two representative experiments): dosedependant activity | Induction of the apoptosis of eosinophils ([7]; in stronger concentrations of IL5 (10 pM)): induces the apoptosis of eosinophils | Effect on apoptosis of the eosinophils ([7]; in the absence of IL-5): accelerates the apoptosis | Number of apoptotic cells ([7]; 24 hrs): very small | Number of apoptotic cells ([7]; 48 hrs): practically all the cells are apoptotic | Apoptosis of eosinophils (percentage of apoptotic eosinophils) ([7]; time 0): 0 | Pharmacological effects [8]: Reduces neonatal jaundice | Storage stability [9]: at least 1 year | Pharmacological effects (inhibition of intestinal, splenic and hepatic hemoxygenesis) [10]: No inhibitory effect on intestinal, | Pharmacological effects (hyperbilirubinemia due to iatrogenic hemolysis) [11]: Reduces hyperbilirubinemia due to | Toxicity in animals [12]: No toxicity has been reported; also recorded: No harmful effects were revealed | Pharmacological effects (phototoxicity) [13]: No phototoxic effect | Pharmacological effects [14]: Reduces neonatal jaundice

CCN(CC)CC(=O)Nc1c(C)cccc1C [lidocaine]
Survival of eosinophils [15]: reduce the survival of eosinophils

IL-5: Cytokine used as survival factor for the eosinophils in culture
Apoptosis of eosinophils (percentage of apoptotic eosinophils) ([7]; 24 hrs): 2 ± 2 | Apoptosis of eosinophils (percentage of apoptotic eosinophils) ([7]; 48 hrs): 2 ± 1 | Apoptosis of eosinophils (percentage of apoptotic eosinophils) ([7]; time 0): 0
